The text below walks through data of ChEMBL document CHEMBL4732189, “A facile synthesis of diaryl pyrroles led to the discovery of potent colchicine site antimitotic agents” (Eur J Med Chem, 2021).

The structures appear in SMILES notation.

The test system of one test is SEM cells. In words: Antiproliferative activity against human SEM cells assessed as reduction in cell viability after 72 hrs by MTT assay. Type of test: functional, cell-based.
A further test has as its system A549. Put plainly: cells. The settings on record: Homo sapiens, A549, 72 h.
In the next test the test system is HeLa. Put plainly: cells. Particulars: Homo sapiens, 72 h.
The subject of the next test is CCRF-CEM. Put plainly: Antiproliferative activity against human CCRF-CEM cells assessed as reduction in cell viability after 72 hrs by MTT assay. In kind it is functional, cell-based.
The subject of the next test is HL-60. Put plainly: Antiproliferative activity against human HL-60 cells assessed as reduction in cell viability after 72 hrs by MTT assay. In kind it is functional, cell-based. The settings on record: HL-60, 72 h.
For the next test, the system named is HT-29. In words: cells. The settings on record: Homo sapiens, HT-29, 72 h.

Description for A549: Antiproliferative activity against human A549 cells assessed as reduction in cell viability after 72 hrs by MTT assay
Description for HeLa: Antiproliferative activity against human HeLa cells assessed as reduction in cell viability after 72 hrs by MTT assay

With `COCOc1ccc(-c2c[nH]cc2-c2cc(OC)c(OC)c(OC)c2)cc1`, the half-inhibitory concentration (IC50) in the test with SEM cells is above 10000 nM; in the test with A549, 8000 nM; in the test with HeLa it was above 10000 nM; in the test with CCRF-CEM, above 10000 nM; in the test on HL-60, above 10000 nM; in the test on HT-29, above 10000 nM.
As for `COc1cc(-n2cccc2-c2ccc(C)c(C)c2)cc(OC)c1OC`, the half-inhibitory concentration (IC50) in the test with SEM cells was 750 nM; in the test on A549, above 10000 nM; in the test on HeLa, 3280 nM; in the test with CCRF-CEM, 3200 nM; in the test with HL-60 it was 4010 nM; with HT-29, 7810 nM.
In the case of `COc1cc(-c2c[nH]cc2-c2ccc(OC(F)(F)F)cc2)cc(OC)c1OC`, the IC50 in the test on SEM cells was 4790 nM; in the test on A549 it was 4230 nM; in the test with HeLa, 5230 nM; in the test with CCRF-CEM, 6260 nM; in the test with HL-60, 5950 nM; in the test with HT-29, 5460 nM.
For the compound `CCSc1ccc(-c2c[nH]cc2-c2cc(OC)c(OC)c(OC)c2)cc1`, the 50% inhibitory concentration (IC50) in the test on SEM cells was found to be 480 nM; with A549 it was 336 nM; in the test on HeLa, 386 nM; in the test with CCRF-CEM, 3070 nM; with HL-60 it was 2660 nM; in the test with HT-29, 630 nM.
For the compound `COc1cc(-c2c[nH]cc2-c2ccc(C(F)(F)F)cc2)cc(OC)c1OC`, the IC50 with SEM cells stood at 343 nM; in the test on A549, 408 nM; with HeLa, 445 nM; in the test on CCRF-CEM it was 1340 nM; with HL-60 it was 933 nM; in the test with HT-29 it was 865 nM.
For `COc1cc(-c2cccn2-c2cccc3ccccc23)cc(OC)c1OC`, the half-inhibitory concentration (IC50) in the test on SEM cells was 7120 nM; with A549 it was above 10000 nM; in the test with HeLa, above 10000 nM; with CCRF-CEM it was 8610 nM; in the test on HL-60, above 10000 nM; in the test on HT-29 it was above 10000 nM.
`COc1ccc(-c2cccn2-c2cc(OC)c(OC)c(OC)c2)cc1C`: the IC50 in the test with SEM cells is 1010 nM; in the test with A549 it was above 10000 nM; with HeLa, 9810 nM; in the test on CCRF-CEM, 2510 nM; with HL-60, 3930 nM; with HT-29 it was above 10000 nM.
Turning to `COc1cc(-c2cccn2-c2ccc(C)c(C)c2)cc(OC)c1OC`, the half-maximal inhibitory concentration (IC50) was 2010 nM in the test with SEM cells; above 10000 nM with A549; above 10000 nM in the test with HeLa; 3510 nM in the test with CCRF-CEM; 4010 nM with HL-60; above 10000 nM with HT-29.
Turning to `COc1cc(-c2c[nH]cc2-c2cc3ccccc3s2)cc(OC)c1OC`, the IC50 in the test on SEM cells turned out to be 37.3 nM; with A549 it was 228 nM; with HeLa, 43 nM; in the test on CCRF-CEM, 155 nM; with HL-60, 35.3 nM; in the test with HT-29 it was 383 nM.
As for `COc1ccc(-c2c[nH]cc2-c2cc(OC)c(OC)c(OC)c2)cc1`, the IC50 with SEM cells is 34.6 nM; in the test on A549, 88 nM; in the test on HeLa it was 28 nM; in the test with CCRF-CEM, 117 nM; in the test with HL-60 it was 255 nM; in the test with HT-29, 31 nM.
For the compound `CCSc1ccc(-c2cccn2-c2cc(OC)c(OC)c(OC)c2)cc1`, the IC50 in the test with SEM cells was 1550 nM; in the test with A549, above 10000 nM; in the test with HeLa, 3910 nM; in the test on CCRF-CEM it was 4630 nM; in the test on HL-60 it was 3720 nM; in the test on HT-29, 9420 nM.
In the case of `COc1ccc(-c2cccn2-c2cc(OC)c(OC)c(OC)c2)cc1Cl`, the IC50 in the test with SEM cells was 550 nM; in the test on A549, above 10000 nM; with HeLa it was 9810 nM; in the test on CCRF-CEM, 2910 nM; in the test on HL-60, 3220 nM; in the test on HT-29, above 10000 nM.
Take `CCCc1ccc(-c2cccn2-c2cc(OC)c(OC)c(OC)c2)cc1`: the concentration for half-maximal inhibition (IC50) is above 10000 nM with SEM cells; above 10000 nM in the test with A549; above 10000 nM with HeLa; 4910 nM in the test with CCRF-CEM; above 10000 nM in the test on HL-60; above 10000 nM with HT-29.
In the case of `COc1ccc(/C=C\c2cc(OC)c(OC)c(OC)c2)cc1O` [COMBRETASTATIN A4], the results for the IC50 in the test with SEM cells and in the test on CCRF-CEM were 5 nM and 2 nM, respectively.
In the case of `COc1cc(-c2cccn2-c2cc(OC)c(OC)c(OC)c2)ccc1C`, the 50% inhibitory concentration (IC50) in the test on SEM cells is 2310 nM; in the test with A549 it was above 10000 nM; with HeLa, above 10000 nM; in the test on CCRF-CEM, 2810 nM; in the test on HL-60, 3620 nM; in the test with HT-29, above 10000 nM.
In the case of `CCc1ccc(-c2cccn2-c2cc(OC)c(OC)c(OC)c2)cc1`, the IC50 was 310 nM with SEM cells; above 10000 nM in the test on A549; 9920 nM in the test on HeLa; 3010 nM in the test with CCRF-CEM; 1130 nM in the test with HL-60; 5440 nM in the test on HT-29.
`COc1cc(-n2cccc2-c2cc3ccccc3s2)cc(OC)c1OC`: the IC50 is 290 nM in the test with SEM cells; above 10000 nM with A549; 950 nM in the test on HeLa; 2920 nM with CCRF-CEM; 3010 nM in the test with HL-60; 5910 nM with HT-29.
For the compound `CCc1ccc(-c2c[nH]cc2-c2cc(OC)c(OC)c(OC)c2)cc1`, the 50% inhibitory concentration (IC50) in the test with SEM cells was determined as 48 nM; in the test with A549 it was 257 nM; in the test on HeLa, 297 nM; with CCRF-CEM, 226 nM; in the test on HL-60, 164 nM; with HT-29, 289 nM.
On to `COc1cc(-c2cccn2-c2ccc(N(C)C)cc2)cc(OC)c1OC`, for which the IC50 is 610 nM with SEM cells; above 10000 nM in the test on A549; 5610 nM with HeLa; 3910 nM in the test with CCRF-CEM; 2620 nM in the test with HL-60; 7120 nM with HT-29.
`COc1cccc(-n2cccc2-c2cc(OC)c(OC)c(OC)c2)c1`: the 50% inhibitory concentration (IC50) with SEM cells was 2010 nM; in the test with A549, above 10000 nM; in the test with HeLa, above 10000 nM; in the test on CCRF-CEM it was 5010 nM; with HL-60, 3110 nM; with HT-29 it was above 10000 nM.
In the case of `COc1cc(-n2cccc2-c2ccc(SC)cc2)cc(OC)c1OC`, the half-inhibitory concentration (IC50) in the test on SEM cells was 200 nM; with A549, above 10000 nM; in the test with HeLa, above 10000 nM; in the test with CCRF-CEM, 2810 nM; in the test on HL-60, 810 nM; in the test on HT-29 it was above 10000 nM.
As for `COc1cc(-c2c[nH]cc2-c2ccc3ccccc3c2)cc(OC)c1OC`, the 50% inhibitory concentration (IC50) in the test with SEM cells stood at 32 nM; in the test with A549 it was 228 nM; in the test with HeLa, 137 nM; in the test with CCRF-CEM, 87.9 nM; in the test with HL-60 it was 54 nM; with HT-29, 255 nM.
On to `COc1ccc(-c2c[nH]cc2-c2cc(OC)c(OC)c(OC)c2)cc1F`, for which the half-inhibitory concentration (IC50) with SEM cells came out at 5.3 nM; with A549, 203 nM; in the test on HeLa, 33 nM; in the test with CCRF-CEM, 53 nM; in the test with HL-60, 33.6 nM; in the test with HT-29, 48 nM.
As to `COc1ccc(-c2c[nH]cc2-c2cc(OC)c(OC)c(OC)c2)cc1Cl`, the IC50 with SEM cells came out at 69.3 nM; with A549, 243 nM; in the test with HeLa, 297 nM; with CCRF-CEM it was 280 nM; in the test on HL-60, 177 nM; with HT-29 it was 279 nM.
Consider `COc1cc(-n2cccc2-c2cc(C)c(OC)c(C)c2)cc(OC)c1OC`, for which the IC50 in the test with SEM cells was 7920 nM; in the test with A549 it was above 10000 nM; in the test with HeLa, above 10000 nM; in the test on CCRF-CEM it was 9110 nM; in the test with HL-60, above 10000 nM; in the test with HT-29, above 10000 nM.
